Assay results reported in patent US12037329B2, “SphK inhibitors and methods of making and using same” (Washington University, priority 2021, dated 2024).
“Also recorded” adds a separate entry of the source.

What was measured:
U-251 MG cells = test: CellTiter96 MTS cell viability dose response, U-251 MG; assay type: cell-based, human; settings: Homo sapiens; U-251 MG cells, 72 h, MTS; read-out: IC50 (cell viability)
Procedure: The anti-tumor activity of these inhibitors was further examined at different doses.
(§1) Cell viability was determined using CellTiter96 MTS Assay and compared to DMSO treated control cells. IC50 values were calculated by non-linear regression analysis of the dose-response curve using GraphPad Prism version 8.00 for Windows (GraphPad Software).

SphK2 [1] = biological target: T1, SphK2 (Homo sapiens (Human), UniProt Q9NRA0); test: ADP-Glo kinase assay, SphK2; assay type: biochemical
T1 sequence (Q9NRA0 whole entry): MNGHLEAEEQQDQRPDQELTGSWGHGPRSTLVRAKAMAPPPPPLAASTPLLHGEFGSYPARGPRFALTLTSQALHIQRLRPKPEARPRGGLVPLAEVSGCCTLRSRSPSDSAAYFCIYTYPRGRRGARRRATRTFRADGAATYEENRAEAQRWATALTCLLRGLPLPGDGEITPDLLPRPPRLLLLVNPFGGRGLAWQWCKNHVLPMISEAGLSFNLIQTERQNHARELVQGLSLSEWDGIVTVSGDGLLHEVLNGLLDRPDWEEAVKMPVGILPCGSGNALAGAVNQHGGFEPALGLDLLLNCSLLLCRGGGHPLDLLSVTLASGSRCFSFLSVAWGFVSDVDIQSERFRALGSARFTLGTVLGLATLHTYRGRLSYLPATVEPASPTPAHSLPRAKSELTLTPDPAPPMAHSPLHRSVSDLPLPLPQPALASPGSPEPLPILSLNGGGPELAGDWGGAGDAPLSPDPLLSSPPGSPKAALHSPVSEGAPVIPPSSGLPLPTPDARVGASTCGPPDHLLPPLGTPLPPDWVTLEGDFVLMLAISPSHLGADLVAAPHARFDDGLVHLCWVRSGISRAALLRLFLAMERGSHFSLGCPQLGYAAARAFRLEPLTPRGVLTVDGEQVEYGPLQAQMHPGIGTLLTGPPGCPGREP
From the text: The bioluminescence-based kinase assay such as ADP-Glo assay measures ADP formed from a kinase reaction with a luciferase. Upon the completion of a kinase reaction, the remaining ATP is depleted, the ADP produced in the kinase reaction is then converted to ATP and the detection is based on a sensitive and robust bioluminescence reaction. It has a broad linear range of ATP concentrations and high dynamic range. To determine the inhibition activity of the compounds, the ADP-Glo kinase assay was used which was able to detect down to 20% of 1 μM ATP to ADP conversion (FIG. 4A).
ADP-Glo (Promega, Madison, WI) kinase assay were used to evaluate the kinase activity of SphK. ATP to ADP standard curves were prepared in the kinase buffer to assess the linearity of the assay in order to calculate the amount of ADP produced in each tested conditions (FIG. 4A). SB10 (tenfold signal to background ra-tio) of SphK was also determined to evaluate the enzyme perfor-mance and to optimize the kinase reaction condition in this system. In brief, for SphK2, […], 100 μM of D-erythro-Sphingosine (Tocris Bioscience, Minneapolis, MN), and 2 ng of recombinant human SphK2 (R&D Systems, Minneapolis, MN) with desired concentration of each synthesized compound were used for SphK2 kinase reaction. For SphK1, exact same reaction condition was used except 0.5 ng of recombinant human SphK1 was used.
To evaluate the SphK selectivity of each compound, 125 μM of each compound in reaction buffer ([…] Tris, pH 8.0, […] MgCl2, and 0.1 mg/mL BSA) with 5% DMSO was incubated with either SphK1 or SphK2 in a 384-well solid white low volume microplate (Corning, Corning, NY), and the reaction was initiated by adding mixture of ATP and D-erythro-Sphingosine to a total volume of 5 μL, after 1 h incubation at room temperature with gentle shaking, the reaction was stopped by adding equal volume of ADP-Glo buffer and incubated for another hour to remove excess amount of ATP from the reaction. Afterwards, 10 μL of kinase detection reagent was added, mixed, and incubated for 30 min under dark. Luminescence output was recorded using a SpectraMax M5 Multi-Mode Microplate Readers (Molecular Devices, San Jose, CA), an integration time of 500 ms was used. All reactions were performed in triplicate. The enzyme activity of SphK in the presence of each compound was normalized to the no treatment control. […] The final data was calculated using Prism 7.0 (GraphPad Software, La Jolla, CA), IC50 was determined using Nonlinear regression (curve fit) four parameters dose-response calculations.

BT20 cells = test: CellTiter96 MTS cell viability dose response, BT20; assay type: cell-based; settings: Homo sapiens, BT-20
Procedure: (§2) The anti-tumor activity of these inhibitors was also examined in different cell types. U-251 MG cells, SiHa cells, BT20 cells, and MDA-MB-453 cells were treated with increasing dose (10^−10 M to 10^−4 M) of SphK2 inhibitor TZ72-53 (21b), and dose response curves were generated (FIG. 9). IC50 values of 21b in the four different cell lines were calculated by non-linear regression analysis of the dose-response curve and are shown in Table 5 below.
as §1

[2] = tested on: U-251 MG human glioblastoma cells; test: U-251 MG cell viability, Hoechst 33258/propidium iodide imaging, 125 μM, 24 h; assay type: cell-based; settings: hydrochloride
Procedure: Cells were seeded into a 96-well microplate (Corning, Corning, NY) at 3000 cells/well and incubated for approximately 16 h. […] Cells were imaged using MetaXpress High-Content Image Acquisition and Analysis Software 6.1 and ImageXpress Micro XLS Wide-field High-Content Analysis System (Molecular Devices, San Jose, CA). Images were taken with a Nikon 10 CFI Plan Fluor objective. For all samples, triplicated measurements were performed.

MDA-MB-453 cells = test: CellTiter96 MTS cell viability dose response, MDA-MB-453; assay type: cell-based; settings: Homo sapiens, MD-MB-453 (MDA-MB-453) cells
Procedure: as §2, §1

SiHa cells = test: CellTiter96 MTS cell viability dose response, SiHa; assay type: cell-based; settings: Homo sapiens
Procedure: as §2, §1

SphK2 [3] = biological target: T1, SphK2; settings: human SphK2; cited from earlier work
SphK1 = SphK1 (Homo sapiens (Human), UniProt Q9NYA1); settings: cited from earlier work
Sequence of SphK1 (Q9NYA1 whole entry): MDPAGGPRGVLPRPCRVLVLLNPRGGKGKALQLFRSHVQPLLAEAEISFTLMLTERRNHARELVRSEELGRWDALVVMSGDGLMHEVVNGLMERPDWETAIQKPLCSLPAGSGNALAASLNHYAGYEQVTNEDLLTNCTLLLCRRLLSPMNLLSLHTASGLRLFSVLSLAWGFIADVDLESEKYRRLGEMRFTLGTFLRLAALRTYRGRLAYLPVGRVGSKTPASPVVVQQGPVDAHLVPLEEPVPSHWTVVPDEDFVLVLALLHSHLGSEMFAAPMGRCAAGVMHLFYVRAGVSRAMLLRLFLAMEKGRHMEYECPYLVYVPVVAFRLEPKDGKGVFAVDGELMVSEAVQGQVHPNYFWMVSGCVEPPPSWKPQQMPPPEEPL

Compound	IC50 (U-251 MG cells) [µM]	SphK2 inhibitory activity (in words) (SphK2 [1])	selectivity/specificity for SphK2 over SphK1 (SphK2 [1]; 125 μM of each compound, SphK2 versus SphK1, FIG. 5, hydrochloride)	IC50 (BT20 cells) [µM]	antitumor activity / reduction of U-251 MG cell viability (in words) [2]	IC50 (MDA-MB-453 cells) [µM]	IC50 (SiHa cells) [µM]	Ki (SphK2 [3]) [µM]	Ki (SphK1) [µM]
Cl.N=C(N)N1CCC[C@H]1Cc1nc(-c2ccc(Cn3cc(-c4ccc(C(F)(F)F)cc4)nn3)cc2)no1 [Compound 21b, (S)-2-((3-(4-((4-(4-(Trifluoromethyl)phenyl)-1H-1,2,3-triazol-1-yl)methyl)phenyl)-1,2,4-oxadiazol-5-yl)methyl)-pyrrolidine-1-carboximidamide hydrochloride]	11	no inhibitory activity	lowest specificity; also recorded: no selectivity	21.3	high anti-tumor activity; also recorded: significant reduction	35.8	13	–	–
Cc1ccc(S(=O)(=O)Nc2ccccc2C=Nc2ccccc2NS(=O)(=O)c2ccc(C)cc2)cc1 [MP-A08]	–	–	–	–	–	–	–	6.9 ± 0.8	27 ± 3
